The target of assay [1] is Human Fibroblast STROMELYSIN (Homo sapiens, UniProt P08254). Description: biochemical. The settings on record: SE in parentheses.
Another assay concerns the target T1, GELATINASE (Homo sapiens, UniProt P08253).
T1 sequence (P08253 110-660): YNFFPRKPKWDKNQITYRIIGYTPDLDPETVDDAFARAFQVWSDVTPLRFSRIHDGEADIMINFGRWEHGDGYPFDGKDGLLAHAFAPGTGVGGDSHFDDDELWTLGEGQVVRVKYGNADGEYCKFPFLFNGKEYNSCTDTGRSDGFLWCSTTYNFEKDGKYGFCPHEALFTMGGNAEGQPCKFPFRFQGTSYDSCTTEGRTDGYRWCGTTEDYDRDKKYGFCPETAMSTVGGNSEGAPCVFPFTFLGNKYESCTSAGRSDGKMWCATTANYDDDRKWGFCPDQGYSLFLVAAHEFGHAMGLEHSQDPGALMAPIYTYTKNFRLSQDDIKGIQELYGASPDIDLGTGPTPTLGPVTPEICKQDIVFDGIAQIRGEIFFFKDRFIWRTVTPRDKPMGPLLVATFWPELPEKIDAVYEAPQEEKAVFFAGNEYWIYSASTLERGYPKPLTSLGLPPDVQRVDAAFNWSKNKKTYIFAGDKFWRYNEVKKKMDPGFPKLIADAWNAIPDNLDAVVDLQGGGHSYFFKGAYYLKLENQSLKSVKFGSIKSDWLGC
Description: inhibition of cleavage of fluorogenic peptide DNP-Pro-Leu-Gly-Leu-Trp-Ala-(D)-Arg-NH2 by gelatinase. It counts as biochemical. The settings on record: Human Fibroblast; SE in parentheses.

A further assay addresses T2, COLLAGENASE (Homo sapiens, UniProt P03956).
T2 sequence (P03956 100-469): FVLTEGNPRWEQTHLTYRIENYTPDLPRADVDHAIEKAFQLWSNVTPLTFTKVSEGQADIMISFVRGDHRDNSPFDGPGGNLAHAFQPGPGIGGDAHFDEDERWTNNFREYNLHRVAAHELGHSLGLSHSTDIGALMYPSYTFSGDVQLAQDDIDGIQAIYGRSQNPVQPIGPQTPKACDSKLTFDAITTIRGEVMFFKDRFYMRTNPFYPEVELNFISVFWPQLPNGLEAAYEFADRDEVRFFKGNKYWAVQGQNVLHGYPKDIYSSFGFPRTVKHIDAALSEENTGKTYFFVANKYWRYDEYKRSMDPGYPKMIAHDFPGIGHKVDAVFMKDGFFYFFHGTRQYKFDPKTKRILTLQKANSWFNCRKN
Description: inhibition of cleavage of fluorogenic peptide DNP-Pro-Leu-Gly-Leu-Trp-Ala-(D)-Arg-NH2 by collagenase. The format is biochemical. The settings on record: Human Fibroblast; SE in parentheses where printed.

The target in assay [2] is human rheumatoid synovial collagenase. The settings on record: cited from earlier work.
Assay [3] deals with rabbit bone proteoglycanase. The settings on record: cited from earlier work.

This is an account of results in patent US5679700A, “Substituted phosphinic acid-containing peptidyl derivatives as antidegenerative agents” (Merck & Co., Inc., priority 1995, dated 1997).

Broadly, the Ki is the equilibrium dissociation constant of an inhibitor or competing ligand from its target. The IC50 is the concentration at which inhibition is half-maximal.

Molecules are shown by their SMILES.

Human Fibroblast STROMELYSIN, sequence (P08254 100-477): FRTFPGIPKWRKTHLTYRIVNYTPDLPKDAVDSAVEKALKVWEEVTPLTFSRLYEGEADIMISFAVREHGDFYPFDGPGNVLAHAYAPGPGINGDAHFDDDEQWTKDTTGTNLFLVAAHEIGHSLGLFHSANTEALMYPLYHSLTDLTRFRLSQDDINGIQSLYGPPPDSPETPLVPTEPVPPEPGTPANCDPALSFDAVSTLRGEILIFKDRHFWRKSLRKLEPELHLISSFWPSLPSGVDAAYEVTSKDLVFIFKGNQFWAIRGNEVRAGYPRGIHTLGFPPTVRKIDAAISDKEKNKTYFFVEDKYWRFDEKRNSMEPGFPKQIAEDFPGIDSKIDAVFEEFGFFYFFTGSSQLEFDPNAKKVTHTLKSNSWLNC

As for `CC(C)C[C@H](NC(=O)C(CCc1ccccc1)CP(=O)(O)CCCCNC(=O)NC(C)C)C(=O)Nc1ccccc1` (some centres unmarked) [(CH2)4 NCHCONH-i-C3 H7], the Ki in assay [1] was 0.022 µM; on GELATINASE, 0.0056 µM.

As to `CC(C)COC(=O)NCCCCP(=O)(O)CC(CCc1ccccc1)C(=O)N[C@@H](CC(C)C)C(=O)Nc1ccccc1` (some centres unmarked) [(CH2)4 NCO2 -i-C4 H4], the Ki in assay [1] is 0.019 µM; on GELATINASE, 0.034 µM.

Turning to `CC(C)C[C@H](NC(=O)C(CCc1ccccc1)CP(=O)(O)CCCCN1C(=O)c2ccccc2C1=O)C(=O)Nc1ccccc1` (stereo partly drawn) [(CH2)4 NPhth, (2-(((4-(1,3-Dihydro-1,3-dioxo-2H-isoindol-2-yl)butyl)hydroxyphosphinyl)methyl)-4-phenylbutanoyl)-L-leucine N-phenylamide], the Ki on COLLAGENASE is 1000 nM; at GELATINASE, 0.026 µM.

`CC(=O)N1CCC[C@H]1C(=O)N[C@@H](C)C(=O)N[C@@H](C)P(=O)(O)CC(CCc1ccccc1)C(=O)N[C@@H](CC(C)C)C(=O)Nc1ccccc1` (stereo partly drawn) [(R)CH(CH3)NHAlaProAc, [[Hydroxy[1(R)-[N-(N-acetyl-L-prolyl-L-alanyl)-amino]-ethyl]-phosphinyl]-methyl]-4-phenylbutanoyl-L-leucyl N-phenylamide]: the figures for the Ki (in assay [1]; at COLLAGENASE; at GELATINASE) were 0.0061 µM, 2900 nM and 0.0026 µM, respectively.

`CNC(=O)[C@H](Cc1ccc(OC)cc1)NC(=O)[C@H](CC(C)C)NC(CCNC(=O)OCc1ccccc1)C(=O)O` (stereo partly drawn) [N-[3-(benzyloxycarbonyl)amino-1-carboxy-n-propyl]-L-leucyl-O-methyl-L-tyrosine, N-methylamide]: the concentration for half-maximal inhibition (IC50) in assay [2] is 800 nM; in assay [3], 500 nM.
